Key:
MDCK cells [1] = assay: Photostick of MDCK cells (violet light crosslinking, ACCUTASE development); format: cell-based, Canine
MDCK cells [2] = format: cell-based; details: 4 μM, 407 nm light 825 J/cm^2
MDCK cells [3] = assay: Cell entry by high magnification fluorescence imaging; format: cell-based, Canine; details: 4 μM, fluorescence localized to the cell membrane
rat hippocampal neurons = assay: Photostick of a single neuron chosen by Optopatch firing pattern; format: cell-based; details: 15 μM, 407 nm light 2200 J/cm^2, ACCUTASE 6 min 37° C.

Question: With `CC[N+]1=C(/C=C/C=C2/N(CCCCCC(=O)NCCNC(=O)CCSSCCNC(=O)C(CCCCNC(=O)CCCCC3SCC4NC(=O)NC43)NC(=O)c3ccc(N=[N+]=N)cc3)c3ccc(S(=O)(=O)O)cc3C2(C)C)C(C)(C)c2cc(S(=O)(=O)O)ccc21` (stereo not drawn) [Cy3-SBED] as the compound, how does the “Cells in the dark region removed” value (MDCK cells [1]) read?
Answer: Its value is 99.96%.

Question: And the “Cells within the illuminated region retained (photostuck cells remained)” value (MDCK cells [1])?
Answer: Its value is 98.7%.

Question: What about the Non-photostuck cells remained (MDCK cells [1]) of the same compound?
Answer: Its Non-photostuck cells remained is 0.04%.

Question: What about the “Cell doubling time post-photostick” value (MDCK cells [2]) of the same compound?
Answer: Its value is 34 h.

Question: What about the “Entry into cells (intracellular fluorescence)” value (MDCK cells [3]) of the same compound?
Answer: Its value is “did not enter the cells”.

Question: What about the “Retention of selected neuron after ACCUTASE (in words)” value (rat hippocampal neurons) of the same compound?
Answer: Its value is “the selected neuron remained”.

Source: patent US10077463B2, “Optical selection of cells” (President and Fellows of Harvard College, priority 2015, dated 2018)
